# According to ChEMBL document CHEMBL4190372, “Discovery of a Novel Oral Glucocorticoid Receptor Modulator (AZD9567) with Improved Side Effect Profile” (J Med Chem, 2018):
# Columns and labels:
# [1] = Aqueous solubility of the compound; format: physicochemical
# [2] = target: T1, Glucocorticoid receptor (Homo sapiens, UniProt P04150); assay: Displacement of fluormone RED from human full length glucocorticoid receptor after 4 hrs by fluorescence polarization assay
# T1 sequence (P04150 whole entry): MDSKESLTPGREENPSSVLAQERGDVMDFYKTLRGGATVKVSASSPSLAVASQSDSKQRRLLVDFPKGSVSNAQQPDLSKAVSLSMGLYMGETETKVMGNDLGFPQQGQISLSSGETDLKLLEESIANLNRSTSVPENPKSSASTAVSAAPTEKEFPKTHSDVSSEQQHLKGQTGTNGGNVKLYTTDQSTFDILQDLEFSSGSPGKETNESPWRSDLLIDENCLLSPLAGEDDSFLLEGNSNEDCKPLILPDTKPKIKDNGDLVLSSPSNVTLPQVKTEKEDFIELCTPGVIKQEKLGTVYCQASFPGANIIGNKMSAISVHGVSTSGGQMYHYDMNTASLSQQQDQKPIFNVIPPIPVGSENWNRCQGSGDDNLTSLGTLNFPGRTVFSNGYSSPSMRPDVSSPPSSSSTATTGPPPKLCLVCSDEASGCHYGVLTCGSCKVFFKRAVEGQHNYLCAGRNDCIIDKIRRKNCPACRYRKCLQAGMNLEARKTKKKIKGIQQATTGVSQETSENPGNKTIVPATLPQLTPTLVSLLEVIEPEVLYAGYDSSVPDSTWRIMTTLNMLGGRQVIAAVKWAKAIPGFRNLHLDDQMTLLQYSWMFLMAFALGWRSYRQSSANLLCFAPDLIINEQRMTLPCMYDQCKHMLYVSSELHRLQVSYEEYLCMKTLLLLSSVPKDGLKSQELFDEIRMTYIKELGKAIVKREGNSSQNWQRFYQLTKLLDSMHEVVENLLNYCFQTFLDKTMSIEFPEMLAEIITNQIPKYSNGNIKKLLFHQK
# [3] = target: T1, Glucocorticoid receptor; assay: Antagonist activity at glucocorticoid receptor (unknown origin) expressed in human ChaGoK1 cells assessed as inhibition of dexamethasone induced transactivation incubated for 24 hrs by beta-galactosidase reporter gene assay; format: cell-based
# [4] = target: T1, Glucocorticoid receptor
# Description: Transactivation activity at glucocorticoid receptor (unknown origin) expressed in human ChaGoK1 cells incubated for 24 hrs by beta-galactosidase reporter gene assay
# [5] = target: T1, Glucocorticoid receptor; remark: listed apart in the source
# Description: Transrepression activity at glucocorticoid receptor (unknown origin) expressed in human ChaGoK1 cells assessed as inhibition of PMA-stimulated gene expression incubated for 24 hrs by beta-galactosidase reporter gene assay
# [6] = target: T1, Glucocorticoid receptor; remark: listed apart in the source
# Description: (§1) Transrepression of GR in human whole blood assessed as inhibition of LPS-induced TNF-alpha release preincubated for 45 mins followed by LPS addition after 18 hrs by AlphaLISA method
# [7] = target: T2, Glucocorticoid receptor (Homo sapiens) (UniProt P04150)
# T2 sequence (whole entry): T1 sequence (P04150 whole entry)
# Description: as §1
# [8] = target: T2, Glucocorticoid receptor (Homo sapiens); remark: listed apart in the source
# Description: Transrepression of GR in cryopreserved human fetal osteoblasts assessed as inhibition of OPG mRNA expression after 4 hrs by RT-qPCR analysis
# [9] = target: T1, Glucocorticoid receptor; details: blood
# Description: Therapeutic index, ratio of fIC20 for transrepression of GR in cryopreserved human fetal osteoblasts assessed as inhibition of OPG mRNA expression to fIC30 for transrepression of GR in human whole blood assessed as inhibition of LPS-induced TNF-alpha release
# [10] = test system: Hepatocyte; assay: Stability in rat hepatocytes; format: ADME, cell-based
# [11] = test system: Hepatocyte; assay: Stability in human hepatocytes; format: ADME, cell-based
Compound,"solubility ([1]; aqueous, read-out: solubility)",IC50 [2],IC50 [3],EC50 [4],IC50 [5],other results
CC[C@H](NC(=O)C(C)(F)F)[C@H](Oc1ccc2c(cnn2-c2ccc(=O)n(C)c2)c1)c1ccccc1,51 µM,–,–,–,–,–
CC(C)[C@H](NC(=O)C(C)(F)F)[C@H](Oc1ccc2c(cnn2-c2cscn2)c1)c1ccccc1,5.8 µM,52 nM,131 nM,29 nM,3.3 nM,–
Cc1ncccc1NC(=O)c1ccc2c(c1)CC[C@@H]1C[C@@](O)(C(F)(F)F)CC[C@@]21Cc1ccccc1 [DAGROCORAT],3.2 µM,< 7.2 nM,8.9 nM,4.8 nM,0.69 nM,IC50 [6]: 35 nM; fIC30 [7]: 2.3 nM; fIC20 [8]: 0.0667 nM; TI [9]: 0.029
CC(C)[C@H](NC(=O)C(F)(F)F)[C@H](Oc1ccc2c(cnn2-c2ccc(F)cc2)c1)c1ccccc1,< 0.1 µM,16 nM,25 nM,5.4 nM,< 0.42 nM,–
CC(C)[C@H](NC(=O)C(C)(F)F)[C@H](Oc1ccc2c(cnn2-c2ccc(=O)n(C)c2)c1)c1cccc(Cl)c1,10 µM,2.6 nM,324 nM,2.9 nM,1.7 nM,–
C[C@H](NC(=O)C(C)(F)F)[C@H](Oc1ccc2c(cnn2-c2ccc(=O)n(C)c2)c1)c1ccccc1,140 µM,–,–,2.3 nM,1.6 nM,–
CC(C)[C@H](NC(=O)C(C)(F)F)[C@H](Oc1ccc2c(cnn2-c2ccc(F)cc2)c1)c1ccccc1,< 0.08 µM,< 14 nM,13 nM,3.9 nM,< 0.34 nM,–
COc1ccc([C@@H](Oc2ccc3c(cnn3-c3ccc(F)cc3)c2)[C@H](COC(C)(C)C)NC(=O)C(C)(F)F)cn1,< 0.01 µM,–,–,–,–,–
CC(C)[C@H](NC(=O)C(C)(F)F)[C@H](Oc1ccc2c(cnn2-c2cnc(=O)n(C)c2)c1)c1ccccc1,5.1 µM,–,–,87 nM,51 nM,–
Cn1cc(-n2ncc3cc(O[C@H](c4ccccc4)[C@H](CC4CC4)NC(=O)C(C)(F)F)ccc32)ccc1=O,20 µM,–,–,–,–,–
COc1ccc([C@@H](Oc2ccc3c(cnn3-c3ccc(F)cc3)c2)[C@H](C)NC(=O)C2CC2)cn1,1 µM,–,–,–,–,–
COc1ccc(-n2ncc3cc(O[C@H](c4ccccc4)[C@@H](NC(=O)C(C)(F)F)C(C)C)ccc32)cn1,< 0.5 µM,57 nM,–,–,–,–
COc1ccc([C@@H](Oc2ccc(C#N)cc2)[C@H](C)NC(=O)C(C)(F)F)cn1,290 µM,< 6.8 nM,–,–,70 nM,–
N#Cc1ccc(O[C@H](c2cnc(C3CC3)nc2)[C@H](CO)NC(=O)C(F)(F)F)c(Br)c1,> 730 µM,42 nM,–,–,–,–
CC#C[C@]1(O)CC[C@H]2[C@@H]3CCC4=CC(=O)CCC4=C3[C@@H](c3ccc(N(C)C)cc3)C[C@@]21C [MIFEPRISTONE],6.9 µM,–,–,–,–,–
CC(C)[C@H](NC(=O)C(C)(F)F)[C@H](Oc1ccc2c(cnn2-c2cc(C#N)c(=O)n(C)c2)c1)c1ccccc1,11 µM,7.2 nM,–,110 nM,27 nM,–

Compound,"solubility ([1]; aqueous, read-out: solubility)",IC50 [2],IC50 [3],EC50 [4],IC50 [5],other results
CCC[C@H](NC(=O)C(C)(F)F)[C@H](Oc1ccc2c(cnn2-c2ccc(=O)n(C)c2)c1)c1ccccc1,22 µM,–,–,–,–,–
CC(C)(C)OC[C@H](NC(=O)C(F)(F)F)[C@H](Oc1ccc(C#N)cc1Br)c1cnc(C2CC2)nc1,18 µM,160 nM,516 nM,–,–,Stability [10]: Stable; Stability [11]: Stable
CCS(=O)(=O)c1cc2cc(C[C@](O)(CC(C)(C)c3ccc(F)cc3C(N)=O)C(F)(F)F)[nH]c2cn1 [BI 653048],–,–,–,–,–,solubility ([1]; buffer): 160 µM
Cn1cc(-n2ncc3cc(O[C@H](c4ccccc4)[C@@H](NC(=O)C(C)(F)F)C4CC4)ccc32)ccc1=O,48 µM,–,–,–,–,–
C[C@H](NC(=O)C(C)(F)F)[C@H](Oc1ccc(C#N)cc1Br)c1cnc(C2CC2)nc1,110 µM,2.4 nM,–,6.4 nM,1.1 nM,Stability [10]: Stable; Stability [11]: Stable
CC[C@H](NC(=O)C(F)(F)F)[C@H](Oc1ccc(C#N)cc1Br)c1cnc(C2CC2)nc1,110 µM,9.3 nM,560 nM,54 nM,9.6 nM,Stability [10]: Stable; Stability [11]: Stable
CC(C)[C@H](NC(=O)C(C)(F)F)[C@H](Oc1ccc2c(cnn2-c2cccn(C)c2=O)c1)c1ccccc1,160 µM,6.1 nM,–,27 nM,11 nM,–
CC(C)[C@H](NC(=O)C(C)(F)F)[C@H](Oc1ccc2c(cnn2-c2ccc(=O)n(C)c2)c1)c1cc(F)cc(F)c1,21 µM,4.7 nM,23 nM,2.7 nM,2.2 nM,IC50 [6]: 120 nM; fIC30 [7]: 0.7 nM; fIC20 [8]: 0.12 nM; TI [9]: 0.17
CC(O)[C@H](NC(=O)C(C)(F)F)[C@H](Oc1ccc2c(cnn2-c2ccc(=O)n(C)c2)c1)c1ccccc1 (stereo partly drawn),250 µM,–,–,–,–,–
N#Cc1ccc(O[C@H](c2cnc(C3CC3)nc2)[C@@H](NC(=O)C(F)(F)F)C2CC2)c(Br)c1,86 µM,14 nM,221 nM,–,21 nM,Stability [10]: Stable; Stability [11]: Stable; IC50 [6]: 340 nM; fIC30 [7]: 36 nM; fIC20 [8]: 0.5 nM; TI [9]: 0.014
CC(C)[C@H](NC(=O)C(C)(F)F)[C@H](Oc1ccc2c(cnn2-c2ccns2)c1)c1ccccc1,0.96 µM,–,–,–,39 nM,–
COc1ccc([C@@H](Oc2ccc3c(cnn3-c3ccc(F)cc3)c2)[C@@H](NC(=O)C(C)(F)F)C(C)C)cn1,< 0.01 µM,18 nM,70 nM,3.5 nM,0.57 nM,–
CC(C)[C@H](NC(=O)C(C)(F)F)[C@H](Oc1ccc2c(cnn2-c2cc(F)c(=O)n(C)c2)c1)c1ccccc1,14 µM,< 3.2 nM,301 nM,18 nM,5.6 nM,–
COc1ccc([C@@H](Oc2ccc3c(cnn3-c3ccc(F)cc3)c2)[C@H](Cc2ccccc2)NC(=O)C(C)(F)F)cn1,< 0.1 µM,32 nM,92 nM,8.7 nM,2 nM,–
C[C@H](NC(=O)C(F)(F)F)[C@H](Oc1ccc(C#N)cc1Br)c1cnc(C2CC2)nc1,97 µM,2.4 nM,–,23 nM,2.5 nM,Stability [10]: Stable; Stability [11]: Stable
CC(C)[C@H](NC(=O)C(F)(F)F)[C@H](Oc1ccc2c(cnn2-c2ccc(=O)n(C)c2)c1)c1cccc(Cl)c1,9.6 µM,< 3 nM,114 nM,5.6 nM,3 nM,IC50 [6]: 420 nM; fIC30 [7]: 1.6 nM; fIC20 [8]: 0.92 nM; TI [9]: 0.58
